Assay results from patent US20240400555A1 (Initial Therapeutics, Inc., priority 2023, published 2024).
pIC50: −log10 of the molar value. Like-named read-outs stand apart in the source and are kept apart here. Blank lines part the entries; values can stand above or below the molecule they belong to.

Test system: MV-4-11 cells
Assay: Cell Viability Assay in MV-4-11 Cells
Type: cell-based
Conditions: Homo sapiens, MV4-11, 72 h
Method in brief: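 MV-4-11 cells at 7,000/well in IMDM with 10% FBS, exposed to compound for 72 h. Viability by CellTiter-Glo luminescence, normalized to DMSO as 100%, fitted with a four-parameter curve.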

[1] = MV-4-11 cells, 72 h, Cell-Titer Glo, read-out: IC50

Compound: Cn1cc(-c2ccc(C(=O)N(c3nccc4sc(C#CCO)cc34)[C@@H]3CCCNC3)c(F)c2)nn1 [Example 479, (R)-2-fluoro-N-(2-(3-hydroxyprop-1-yn-1-yl)thieno[3,2-c]pyridin-4-yl)-4-(1-methyl-1H-1,2,3-triazol-4-yl)-N-(piperidin-3-yl)benzamide]
pIC50 [1]: 5.49

Compound: Cn1cc(-c2ccc(C(=O)N(c3nccc4sc(-c5cnccn5)cc34)[C@@H]3CCCNC3)c(F)c2)nn1 [Example 482]
pIC50 [1]: 6.06

Compound: Cn1cc(-c2ccc(C(=O)N(c3nccc4sc(-c5ccnc(N)n5)cc34)[C@@H]3CCCNC3)c(F)c2)nn1 [Example 484, N-[2-(2-aminopyrimidin-4-yl)thieno[3,2-c]pyridin-4-yl]-2-fluoro-4-(1-methyltriazol-4-yl)-N-[(3R)-3-piperidyl]benzamide]
pIC50 [1]: 6.03

Compound: Cn1cc(-c2ccc(C(=O)N(c3nccc4sc(-c5cnn(Cc6cccnc6)c5)cc34)[C@@H]3CCCNC3)c(F)c2)nn1 [Example 485, 2-fluoro-4-(1-methyltriazol-4-yl)-N-[(3R)-3-piperidyl]-N-[2-[1-(3-pyridylmethyl)pyrazol-4-yl]thieno [3,2-c]pyridin-4-yl] benzamide]
pIC50 [1]: 6.01

Compound: Cn1cc(-c2ccc(C(=O)N(c3nccc4sc(/C=C/C(N)=O)cc34)[C@@H]3CCCNC3)c(F)c2)nn1 [Example 486, N-[2-[(E)-3-amino-3-oxo-prop-1-enyl]thieno[3,2-c]pyridin-4-yl]-2-fluoro-4-(1-methyltriazol-4-yl)-N-[(3R)-3-piperidyl]benzamide]
pIC50 [1]: < 5.00

Compound: Cn1cc(-c2ccc(C(=O)N(c3nccc4sc(-c5cnn(CC(N)=O)c5)cc34)[C@@H]3CCCNC3)c(F)c2)nn1 [Example 489, N-[2-[1-(2-amino-2-oxo-ethyl)pyrazol-4-yl]thieno[3,2-c]pyridin-4-yl]-2-fluoro-4-(1-methyltriazol-4-yl)-N-[(3R)-3-piperidyl]benzamide]
pIC50: < 5.00

Now from value to molecule:

pIC50 [1]: 6.47
Compound: Cn1cc(-c2ccc(C(=O)N(c3nccc4sc(-c5ccnc(N)c5)cc34)[C@@H]3CCCNC3)c(F)c2)nn1 [Example 478, (R)—N-(2-(2-aminopyridin-4-yl)thieno[3,2-c]pyridin-4-yl)-2-fluoro-4-(1-methyl-1H-1,2,3-triazol-4-yl)-N-(piperidin-3-yl)benzamide]

pIC50 [1]: 6.27
Compound: Cn1cc(-c2ccc(C(=O)N(c3nccc4sc(-c5cccc(C(N)=O)c5)cc34)[C@@H]3CCCNC3)c(F)c2)nn1 [Example 480, N-[2-(3-carbamoylphenyl)thieno [3,2-c]pyridin-4-yl]-2-fluoro-4-(1-methyltriazol-4-yl)-N-[(3R)-3-piperidyl] benzamide]

pIC50 [1]: 6.57
Compound: Cn1cc(-c2ccc(C(=O)N(c3nccc4sc(-c5ccc(CO)s5)cc34)[C@@H]3CCCNC3)c(F)c2)nn1 [Example 481, (R)-2-fluoro-N-(2-(5-(hydroxymethyl)thiophen-2-yl)thieno[3,2-c]pyridin-4-yl)-4-(1-methyl-1H-1,2,3-triazol-4-yl)-N-(piperidin-3-yl)benzamide]

pIC50 [1]: 6.47
Compound: Cc1ncc(-c2cc3c(N(C(=O)c4ccc(-c5cn(C)nn5)cc4F)[C@@H]4CCCNC4)nccc3s2)s1 [Example 483, (R)-2-fluoro-4-(1-methyl-1H-1,2,3-triazol-4-yl)-N-(2-(2-methylthiazol-5-yl)thieno[3,2-c]pyridin-4-yl)-N-(piperidin-3-yl)benzamide]

pIC50 [1]: 6.21
Compound: Cn1cc(-c2ccc(C(=O)N(c3nccc4sc(Cc5ccccc5)cc34)[C@@H]3CCCNC3)c(F)c2)nn1 [Example 487, N-(2-benzylthieno[3,2-c]pyridin-4-yl)-2-fluoro-4-(1-methyltriazol-4-yl)-N-[(3R)-3-piperidyl]benzamide]

pIC50 [1]: 6.19
Compound: Cn1cc(-c2ccc(C(=O)N(c3nccc4sc(Cc5cccnc5)cc34)[C@@H]3CCCNC3)c(F)c2)nn1 [Example 488, 2-fluoro-4-(1-methyltriazol-4-yl)-N-[(3R)-3-piperidyl]-N-[2-(3-pyridylmethyl)thieno[3,2-c]pyridin-4-yl]benzamide]
